According to paper PMC6401531 (ChemistryOpen, 2019):
“And” between values parts separate entries of the source, which are not always exact repeats. Identical values can stand only once. Like-named read-outs stand apart in the source and are kept apart here.

Assays:
hH4R = hH4R (Homo sapiens, UniProt Q9H3N8); assay: [35S]GTPγS binding assay, Sf9 membranes; type: biochemical
hH2R = hH2R (Homo sapiens, UniProt P25021+P63092); assay: [35S]GTPγS binding assay, Sf9 membranes; type: biochemical
gpH2R (atrium) [1] = target: T1, gpH2R (atrium) (Cavia porcellus, UniProt P47747); assay: Organ bath study on isolated guinea pig right atrium; conditions: for Emax gpH2R: maximal response relative to maximal increase in heart rate induced by histamine (Emax=1.00)
hH3R = hH3R (Homo sapiens, UniProt Q9Y5N1); assay: [35S]GTPγS binding assay, Sf9 membranes; type: biochemical
gpH1R (ileum) = gpH1R (ileum) (Cavia porcellus, UniProt P31389); assay: Organ bath study on isolated guinea pig ileum
gpH2R (atrium) [2] = target: T1, gpH2R (atrium); conditions: guinea-pig right atrium, cited from earlier work
[3] = [35S]GTPγS binding, maximal response relative to histamine (Emax=1.00)

T1 sequence (P47747 whole entry): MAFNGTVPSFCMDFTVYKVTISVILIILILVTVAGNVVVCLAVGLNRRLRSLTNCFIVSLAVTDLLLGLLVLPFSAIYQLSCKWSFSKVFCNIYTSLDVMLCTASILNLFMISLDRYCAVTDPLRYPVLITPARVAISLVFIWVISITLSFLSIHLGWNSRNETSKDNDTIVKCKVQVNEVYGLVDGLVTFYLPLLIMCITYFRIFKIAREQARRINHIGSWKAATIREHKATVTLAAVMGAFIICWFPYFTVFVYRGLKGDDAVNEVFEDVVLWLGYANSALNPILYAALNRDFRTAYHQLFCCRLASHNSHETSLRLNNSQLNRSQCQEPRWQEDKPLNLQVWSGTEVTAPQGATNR
Chain of hH4R (Q9H3N8 whole entry): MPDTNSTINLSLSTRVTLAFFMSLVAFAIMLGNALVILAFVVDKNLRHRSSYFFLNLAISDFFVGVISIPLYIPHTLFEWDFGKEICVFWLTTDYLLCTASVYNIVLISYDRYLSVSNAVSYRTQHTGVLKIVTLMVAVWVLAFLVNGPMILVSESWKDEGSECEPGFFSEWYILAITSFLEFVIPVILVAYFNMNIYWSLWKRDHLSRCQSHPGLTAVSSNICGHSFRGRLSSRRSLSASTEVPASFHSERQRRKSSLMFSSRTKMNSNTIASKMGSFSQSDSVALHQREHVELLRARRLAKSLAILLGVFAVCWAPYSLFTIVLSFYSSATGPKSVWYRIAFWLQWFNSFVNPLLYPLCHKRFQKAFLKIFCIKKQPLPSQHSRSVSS
Chain of hH3R (Q9Y5N1 whole entry): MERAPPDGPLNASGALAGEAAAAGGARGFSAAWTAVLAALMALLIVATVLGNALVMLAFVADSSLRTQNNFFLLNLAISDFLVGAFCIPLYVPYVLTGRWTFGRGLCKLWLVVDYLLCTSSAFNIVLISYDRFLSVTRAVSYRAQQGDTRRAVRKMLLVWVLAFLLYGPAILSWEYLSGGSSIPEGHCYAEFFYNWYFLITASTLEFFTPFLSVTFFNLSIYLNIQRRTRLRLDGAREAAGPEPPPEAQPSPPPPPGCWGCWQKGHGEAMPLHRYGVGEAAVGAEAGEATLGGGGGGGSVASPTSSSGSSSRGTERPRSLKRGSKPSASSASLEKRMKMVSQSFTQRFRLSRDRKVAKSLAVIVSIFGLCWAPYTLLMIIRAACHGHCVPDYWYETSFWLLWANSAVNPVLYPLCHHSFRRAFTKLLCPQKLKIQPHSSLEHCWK
Chain of gpH1R (ileum) (P31389 whole entry): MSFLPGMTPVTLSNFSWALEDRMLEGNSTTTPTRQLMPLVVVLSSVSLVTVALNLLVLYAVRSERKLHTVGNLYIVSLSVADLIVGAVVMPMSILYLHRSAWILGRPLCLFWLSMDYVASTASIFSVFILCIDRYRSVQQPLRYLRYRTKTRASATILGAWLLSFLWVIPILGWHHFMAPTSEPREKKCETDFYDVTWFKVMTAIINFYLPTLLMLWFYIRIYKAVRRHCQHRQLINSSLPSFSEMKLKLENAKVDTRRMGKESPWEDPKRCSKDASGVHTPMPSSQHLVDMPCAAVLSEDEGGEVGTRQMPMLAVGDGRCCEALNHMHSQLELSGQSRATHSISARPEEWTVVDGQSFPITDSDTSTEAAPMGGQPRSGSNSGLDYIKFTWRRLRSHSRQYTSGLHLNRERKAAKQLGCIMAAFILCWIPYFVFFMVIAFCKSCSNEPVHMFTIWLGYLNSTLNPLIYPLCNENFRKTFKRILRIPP

Row | SMILES | Emax gpH2R (gpH2R (atrium) [1]) | Kb (gpH1R (ileum)) [nM] | EC50 (gpH2R (atrium) [1]) [nM] | also measured
1 | NCCc1c[nH]cn1 [compound 1, histamine, reference compound] | 1.00 |  |  | Emax hH4R (hH4R; [3]): 1.00; Emax hH2R (hH2R; [3]): 1.00; Emax hH3R (hH3R; [3]): 1.00
2 | N=C(NCCCN)NCCCc1c[nH]cn1 [compound 115, 1‐(3‐Aminopropyl)‐3‐[3‐(1H‐imidazol‐4‐yl)propyl]guanidine] | 0.88±0.05 | 16600 | 4680 | 
3 | N=C(NCCCCN)NCCCc1c[nH]cn1 [compound 116] | 0.68±0.02 | 3800 | 7410 | 
4 | N=C(NCCCCCCN)NCCCc1c[nH]cn1 [compound 117] | 0.79±0.01 | 6310 | 380 | 
5 | N=C(NCCCCCCCCN)NCCCc1c[nH]cn1 [compound 118] | 0.75±0.10 | 1290 | 309 | 
6 | N=C(NCCCCCCCCCCN)NCCCc1c[nH]cn1 [compound 119] | 0.78±0.01 | 676 | 389 | 
7 | N=C(NCCCCCCCCCCCCN)NCCCc1c[nH]cn1 [compound 120] | 1.00 and 1.00±0.06 | 112 | 138 | Emax hH4R (hH4R): 0; Kb (hH4R): 372000 nM; Emax hH2R (hH2R): 0.66±0.01; Emax hH3R (hH3R): 0; Kb (hH3R): 191 nM
8 | Cc1nc(N)sc1CCCNC(=N)NCCCCCCCCCCCCN [compound 121] | 0.71±0.03 | 70.8 | 324 | Emax hH4R (hH4R): 0; Kb (hH4R): 178000 nM; Emax hH2R (hH2R): 0.22 and 0.22±0.01; Emax hH3R (hH3R): −0.69±0.03
9 | N=C(NCCCCCCCCCCCCN)NCCCc1cnc(N)s1 [compound 122] | 0.90±0.05 | 9.33 | 234 | 
10 | N=C(N)NCCCCNC(=N)NCCCc1c[nH]cn1 [compound 123] | 1.03 and 1.03±0.03 | 2630 | 50.1 | 
11 | N=C(N)NCCCCCCNC(=N)NCCCc1c[nH]cn1 [compound 124] | 0.94±0.02 | 933 | 21.4 | 
12 | N=C(N)NCCCCCCCCNC(=N)NCCCc1c[nH]cn1 [compound 125] | 0.83 and 0.83±0.07 | 1620 | 20.4 | 
13 | N=C(N)NCCCCCCCCCCNC(=N)NCCCc1c[nH]cn1 [compound 126] | 0.80±0.02 | 251 | 27.5 | 
14 | N=C(N)NCCCCCCCCCCCCNC(=N)NCCCc1c[nH]cn1 [compound 127] | 0.77±0.07 | 60.3 | 56.2 | Emax hH4R (hH4R): 0; Kb (hH4R): 417000 nM; Emax hH2R (hH2R): 0.45±0.03; Emax hH3R (hH3R): 0; Kb (hH3R): 66.1 nM
15 | Cc1nc(N)sc1CCCNC(=N)NCCCCCCCCNC(=N)N [compound 128] | 0.72±0.02 | 214 | 135 | 
16 | N=C(N)NCCCCCCCCNC(=N)NCCCc1cnc(N)s1 [compound 129] | 1.00±0.01 | 50.1 | 38.9 | 
17 | Cc1nc(N)sc1CCCNC(=N)NCCCCCCCCCCCCNC(=N)N [compound 130] | 0.90±0.04 | 174 | 95.5 | Emax hH2R (hH2R): 0.22 and 0.22±0.01; Emax hH3R (hH3R): −1.21±0.10
18 | N=C(N)NCCCCCCCCCCCCNC(=N)NCCCc1cnc(N)s1 [compound 131] | 0.85±0.05 | 8.71 | 117 | 
19 | N=C(NCCCNC(N)=O)NCCCc1c[nH]cn1 [compound 132] | 0.89±0.03 | 9120 | 2450 | 
20 | N=C(NCCCCNC(N)=O)NCCCc1c[nH]cn1 [compound 133] | 1.03±0.03 | 6030 | 288 | 
21 | N=C(NCCCCCCNC(N)=O)NCCCc1c[nH]cn1 [compound 134] | 0.96±0.03 | 7410 | 676 | 
22 | N=C(NCCCCCCCCNC(N)=O)NCCCc1c[nH]cn1 [compound 135] | 0.94±0.05 | 1410 | 182 | 
23 | N=C(NCCCCCCCCCCNC(N)=O)NCCCc1c[nH]cn1 [compound 136] | 0.96±0.01 | 1000 | 295 | Emax hH2R (hH2R): 0.45 and 0.45±0.03; Emax hH3R (hH3R): −1.20±0.15
24 | O=C(NC(=S)NCCCc1c[nH]cn1)c1ccccc1 [compound 141, N‐{[3‐(1H‐Imidazol‐4‐yl)propyl]thiocarbamoyl}benzamide] | 0.43±0.01 |  | 18600 | 
25 | NC(=S)NCCCc1c[nH]cn1 [compound 142] | 0.27±0.02 |  | 11000 | 
26 | CSC(=N)NCCCc1c[nH]cn1 [compound 143, N‐[3‐(1H‐Imidazol‐4‐yl)propyl]‐S‐methylisothiourea] | 0.45 and 0.45±0.05 | 3890 | 7410 | rel. potency (gpH2R (atrium) [2]; relative to histamine): 0.1; maximum response (gpH2R (atrium) [2]): 0.23
27 | O=C(NCCCc1c[nH]cn1)NC(=O)c1ccccc1 [compound 144] | 0.15±0.03 | 9550 | 24000 | 
28 | NC(=O)NCCCc1c[nH]cn1 [compound 145, 1‐[3‐(1H‐Imidazol‐4‐yl)propyl]urea] | 0.58±0.02 | > 31600 | 269000 | 
